# Reference: article PMC9854712 (Antioxidants, 2023)
# Experiments:
# [1] = test system: HTB-54 cells; experiment: MTT cell viability assay, HTB-54; type: cell-based; settings: 10 µM, 48 h, MTT; for viability at 10 µM: HTB-54, read-out: Cell growth % at 10 µM, HTB-54
# Description: (§1) The cell lines were obtained from the American Type Culture Collection (ATCC). Five tumor cell lines (MDA-MB-231, MCF-7, HCT116, HTB-54, and DU-145) and two non-tumorigenic cells (184B5 and BEAS-2B) were grown in RPMI 1640 medium (Gibco), and the HT-29 tumor cell line was grown in McCoy’s medium. Both mediums were supplemented with 10% fetal bovine serum (FBS; Gibco) and 1% antibiotics (10.00 units/mL penicillin and 10.00 μg/mL streptomycin; Gibco). Cells were preserved in tissue culture flasks at 37 °C and 5% CO2. The culture medium was replaced every three days.
# (§2) The effect of each compound on cell viability was tested using the MTT assay. […] Selected compounds were then tested at seven different concentrations (0.5–100 μM) in MCF-7, HCT116, HT-29, HTB-54, 184B5 and BEAS-2B cells. Cells were seeded at 10^4 per well onto flat-bottomed 96-well culture plates. They were treated with either DMSO or increasing concentration of the corresponding compound for 48 h. Then, they were incubated with 20 μL of 3-(4,5-dimethylthiazol-2-yl)-2,5-diphenyltetrazolium bromide (MTT) (2 mg /mL stock; Aldrich) for 2,5 h and analyzed for their ability to generate a purple formazan dye. These formazan crystals were dissolved in 50 μL of DMSO. The absorbance was measured at a wavelength of 550 nm and the ratio of viable cells was calculated.
# (§3) Results are expressed as cell viability % at 10 μM. Selectivity index were calculated as the ratio of the IC50 values determined for the non-malignant and the tumor cells in breast (IC50 (184B5)/IC50 (MCF-7)) and lung (IC50 (BEAS-2B)/IC50 (HTB-54)) cell lines. Data were obtained from at least three independent experiments performed in triplicates.
# [2] = test system: MDA-MB-231 cells; experiment: MTT cell viability assay, MDA-MB-231; type: cell-based; settings: for viability at 10 µM: Homo sapiens, MDA-MB-231, 48 h, read-out: Cell growth % at 10 µM, MDA-MB-231
# Description: as §1, §2, §3
# [3] = test system: DU-145 cells; experiment: MTT cell viability assay, DU-145; type: cell-based; settings: for viability at 10 µM: Homo sapiens, DU-145, 48 h, read-out: Cell growth % at 10 µM, DU-145
# Description: as §1, §2, §3
# [4] = test system: HT-29 cells; experiment: MTT cell viability assay, HT-29; type: cell-based; settings: 48 h; for viability at 10 µM: Homo sapiens, HT-29, 10 µM, read-out: Cell growth % at 10 µM, HT-29
# Description: as §1, §2, §3
# [5] = molecular target: T1, AChE (Rattus norvegicus, UniProt P37136); experiment: AChE inhibition by Ellman's method (rat frontal cortex homogenate); type: biochemical; settings: for % AChE Inhibition / inhibition at 1 µM: at 10^−6 M, Ellman's method
# T1 construct: from tissue; host or cells: frontal cortex of male Wistar rats (crude homogenate)
# T1 sequence (P37136 32-614): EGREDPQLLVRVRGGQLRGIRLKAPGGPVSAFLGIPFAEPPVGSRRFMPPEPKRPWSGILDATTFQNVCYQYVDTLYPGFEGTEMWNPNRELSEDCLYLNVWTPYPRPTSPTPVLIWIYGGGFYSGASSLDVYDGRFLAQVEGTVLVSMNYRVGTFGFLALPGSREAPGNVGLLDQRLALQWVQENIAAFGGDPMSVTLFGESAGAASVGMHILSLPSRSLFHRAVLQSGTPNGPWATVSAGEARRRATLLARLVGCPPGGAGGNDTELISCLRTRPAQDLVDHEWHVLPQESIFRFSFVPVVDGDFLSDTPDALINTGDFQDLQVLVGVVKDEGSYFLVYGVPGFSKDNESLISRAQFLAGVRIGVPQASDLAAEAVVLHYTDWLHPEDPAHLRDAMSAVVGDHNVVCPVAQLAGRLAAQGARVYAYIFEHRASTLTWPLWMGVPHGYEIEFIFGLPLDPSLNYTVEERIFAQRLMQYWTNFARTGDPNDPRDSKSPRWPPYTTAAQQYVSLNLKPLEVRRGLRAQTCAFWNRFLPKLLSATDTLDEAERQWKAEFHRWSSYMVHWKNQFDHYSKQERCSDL
# Description: Frontal cortex tissue obtained from male Wistar rats was homogenized in 39 volumes of 75 mM sodium phosphate buffer (pH 7.4). A mixture of 260 μL containing the compounds assessed, acetylthiocholine iodide and 5 μL tissue homogenate was incubated for 8 min. The reaction was then terminated by adding 50 μL 3% (w/v) sodium dodecyl sulphate followed by 50 μL 0.2% (w/v) 5,5′-dithio-bis(2-nitrobenzoic) acid to produce the yellow anion of 5-thio-2-nitro-benzoic-acid. The extent of the color production was measured spectrophotometrically at 405 nm using Multiskan Ex (Thermo Electron Corporation). […] Results are expressed as the mean ± SD and each experiment was repeated three times.
# [6] = in vitro; settings: for Papp at 20 h, 500 µg/mL: PAMPA; for Pe ± SD: porcine brain lipid, 20 h, 25 °C; for BBB Permeation (Experimental): class from PAMPA-BBB Pe
# Description: Franz diffusion cells (Microette 8910130, Hanson Research) were employed to perform this assay. The compounds were dissolved in DMSO at 5 mg/mL and diluted to 500 µg/mL with phosphate-buffered saline (PBS)/EtOH (7:3) to make a stock solution. A total of 10 µL of porcine brain lipid (PBL) diluted in dodecane solution (20 mg/mL) was spread onto a PVDF membrane that was placed between the donor and acceptor compartments, forming a sandwich structure. Then, 4.5 mL of PBS/EtOH (7:3) was added to the acceptor compartment and 700 µL of the stock solution was added to the donor cell. […] The concentration of the compound was calculated from the standard curve and expressed as permeability (Pe) by the following formula [84]:Permeability (cm/s): Pe = {−ln [1 − CA(t)/Ceq]}/[A ∗ (1/VD + 1/VA) ∗ t]
# A = filter area ([…]), VD = donor cell volume (0.7 mL), VA = acceptor cell volume (4.5 mL), t = incubation time, CA (t) = compound concentration in acceptor cell at time t, CD (t) = compound concentration in donor cell at time t, and Ceq = [CD(t) ∗ VD + […] ∗ VA]/(VD + VA).
# Every sample was analyzed at least in duplicate and the data were reported as mean ± SD.
# [7] = test system: HT-29 cells; settings: parent NSAID; cited from earlier work
Compound,viability at 10 µM [1],viability at 10 µM [2],viability at 10 µM [3],viability at 10 µM [4],inhibition at 1 µM [5],further results
"C=CC[Se]C(=O)c1sccc1Cl [Compound 10a, Se-allyl 3-chlorothiophene-2-carboselenoate]",27.1 ± 11.2%,41.3 ± 3.5%,33.4 ± 6.4%,61.5 ± 17.6%,42.5%,"IC50 [5]: 2.4 ± 1.2 µM; % AChE Inhibition [5]: 42.5 ± 6.4%; Papp at 20 h, 500 µg/mL [6]: 38.6 ± 1.3 ×10⁻⁶ cm/s; fold higher Pe compared to galantamine ([6]; PAMPA-BBB): 3 fold; Pe ± SD ([6]; PAMPA-BBB): 3.863e-05 cm/s; BBB Permeation (Experimental) [6]: High (High BBB permeation predicted; Pe (10^−6 cm s^−1) > 4.0)"
"C#CC[Se]C(=O)c1ccno1 [Compound 12b, Se-prop-2-ynyl isoxazole-5-carboselenoate]",97.6 ± 7.1%,92.5 ± 15.1%,95.1 ± 12.3%,81.3 ± 11.1%,21.7 ± 7.9%,
"C=CC[Se]C(=O)c1ccccc1O [Compound 13a, Se-allyl 2-hydroxybenzoselenoate]",40.9 ± 4.9%,77.1 ± 12.6%,29.5 ± 4.3%,88.8 ± 8.6%,51.8 ± 4%,IC50 [5]: 5.2 ± 2.3 µM; stability during the PAMPA-BBB experiment ([6]; observation in words): signs of degradation
"C#CC[Se]C(=O)c1ccccc1O [Compound 13b, Se-prop-2-ynyl 2-hydroxybenzoselenoate]",82.1 ± 7.6%,52.3 ± 7.9%,26.8 ± 5.5%,70.2 ± 13.2%,21.5 ± 9.5%,
"C#CC[Se]C(=O)c1ccccc1OC(C)=O [Compound 14b, 2-(prop-2-ynylselanyl)carbonylphenylacetate]",78.9 ± 9%,52.3 ± 7.1%,25.5 ± 6.2%,65.6 ± 7.3%,21.1 ± 5.2%,
"C#CC[Se]C(=O)C(C)c1ccc(CC(C)C)cc1 (centres unmarked) [Compound 15b, Se-prop-2-ynyl 2-(4-isobutylphenyl)propaneselenoate]",95.6 ± 5.7%,59.7 ± 15.7%,34.7 ± 6.3%,59.3 ± 4%,8.5 ± 11.1%,
"C#CC[Se]C(=O)[C@@H](C)c1ccc2cc(OC)ccc2c1 [Compound 16b, Se-prop-2-ynyl (S)-2-(6-methoxynaphthalen-2-yl)propaneselenoate]",> 100%,29.8 ± 9.6%,66.4 ± 4.4%,65.7 ± 10%,16.2 ± 2.3%,
"C#CC[Se]C(=O)Cc1c(C)n(C(=O)c2ccc(Cl)cc2)c2ccc(OC)cc12 [Compound 17b, Se-prop-2-ynyl 2-(1-(4-chlorobenzoyl)-5-methoxy-2-methyl-1H-indol-3-yl)ethaneselenoate]",85.9 ± 5.1%,59.1 ± 11.5%,19.2 ± 4%,66.3 ± 10.2%,23 ± 6.7%,
"C=CC[Se]C(=O)c1ccccc1Nc1cccc(C)c1C [Compound 18a, Se-allyl 2-(2,3-dimethylphenyl)aminebenzoselenoate]",40.9 ± 18.5%,85.9 ± 9.5%,74.7 ± 13.7%,71.5 ± 11.7%,18.4 ± 3.6%,
"C#CC[Se]C(=O)c1ccccc1Nc1cccc(C)c1C [Compound 18b, Se-prop-2-ynyl 2-(2,3-dimethylphenyl)aminobenzoselenoate]",62.3 ± 8.3%,99 ± 11.2%,32.6 ± 4.6%,66.5 ± 9.5%,20 ± 2.4%,
"C=CC[Se]C(=O)c1ccccc1Nc1cccc(C(F)(F)F)c1 [Compound 19a, Se-allyl 2-(3-trifluoromethylphenyl)aminobenzoselenoate]",16.3 ± 7.6%,81.6 ± 9.7%,17 ± 2.9%,46 ± 8.7%,19.3 ± 2%,
C#CC[Se]C(=O)c1ccccc1Nc1cccc(C(F)(F)F)c1 [Compound 19b],43.6 ± 18.4%,92.8 ± 10.2%,25.2 ± 2.2%,61.6 ± 9.8%,21.1 ± 2.6%,
"COc1ccc2c3c1O[C@H]1C[C@@H](O)C=C[C@@]31CCN(C)C2 [Galantamine, galantamine, reference compound]",,,,,,"Papp at 20 h, 500 µg/mL [6]: 12.3 ± 3.1 ×10⁻⁶ cm/s; Pe ± SD ([6]; PAMPA-BBB): 1.227e-05 cm/s; BBB Permeation (Experimental) [6]: High (High BBB permeation predicted; Pe (10^−6 cm s^−1) > 4.0)"
"CC(C)Cc1ccc(C(C)C(=O)O)cc1 (centres unmarked) [Ibuprofen, 2-(4-isobutylphenyl) propanoic acid]",,,,,,IC50 [7]: > 50 µM
"Se-prop-2-ynyl 3a,7a-dihydrobenzo[d][1,3]dioxole-5-carboselenoate [Compound 4b]",,,,,,"Cell growth % at 10 µM, HTB-54 [1]: 57.8 ± 8.1%; Cell growth % at 10 µM, MDA-MB-231 ([2]; 48 h): 62.6 ± 7.4%; Cell growth % at 10 µM, DU-145 ([3]; 48 h): 19.7 ± 2.2%; Cell growth % at 10 µM, HT-29 ([4]; 10 µM): 50.6 ± 7.8%; % AChE Inhibition [5]: 16.5 ± 10.6%"
